From ChEMBL document CHEMBL4814024, “Microwave assisted regioselective synthesis of quinoline appended triazoles as potent anti-tubercular and antifungal agents via copper (I) catalyzed cycloaddition” (Bioorg Med Chem Lett, 2021) come the findings set out here.

One data set deals with Aspergillus fumigatus. Briefly: Antifungal activity against Aspergillus fumigatus. Format: functional.
For the next data set, the system named is Candida albicans. Briefly: Antifungal activity against Candida albicans. Format: functional.
The subject of a further data set is Aspergillus niger. Briefly: Antifungal activity against Aspergillus niger. Format: functional.
In a further data set the test system is HEK293. Briefly: Cytotoxicity against HEK293 cells by MTT assay. Format: cell-based. To be noted: Homo sapiens. For orientation: Tetrazolium assays rely on reduction of a dye to a coloured formazan, in cell work by metabolically active cells.
The test system of a further data set is Aspergillus flavus. Briefly: Antifungal activity against Aspergillus flavus. The class given is functional.
A short description of data set [1]: Selectivity index, ratio of IC50 for cytotoxicity against human HEK293 cells to MIC for antimycobacterial activity against Mycobacterium tuberculosis H37Rv ATCC 27294. Format: toxicity, cell-based. The note with it: read-out: Selectivity Index.
Data set [2] relates to Mycobacterium tuberculosis. Briefly: Antimycobacterial activity against Mycobacterium tuberculosis H37Rv ATCC 27294 assessed as reduction in bacterial growth by microplate alamar blue assay. Format: functional. For orientation: Resazurin is reduced to fluorescent resorufin, in cell work by metabolically active cells.
Data set [3] has as its system Mycobacterium tuberculosis. Briefly: Antimycobacterial activity against Mycobacterium tuberculosis. Format: functional.
In data set [4] the test system is Mycobacterium tuberculosis. Briefly: Antimycobacterial activity against Mycobacterium tuberculosis H37Rv assessed as reduction in bacterial growth incubated for 5 days by MTT assay. The class given is functional. The note with it: 120 h, time 5 day.

Molecules are shown by their SMILES. Converted amounts (≈) assume the structure as drawn.

In general, MIC refers to the least concentration at which growth counts as inhibited. Usually IC50 stands for the point on the concentration scale where inhibition reaches its midpoint. A lower IC50 goes with greater potency. With `COc1ccc(-n2ncn(Cc3cn(Cc4cc5ccccc5nc4Cl)nn3)c2=O)cc1`, the minimal inhibitory concentration (MIC) against Aspergillus fumigatus turned out to be 3.12 mg/L (≈ 6.97 µM); with Candida albicans, 0.2 mg/L (≈ 0.447 µM); in the data set on Aspergillus niger, 0.2 mg/L (≈ 0.447 µM); in the data set on Aspergillus flavus, 0.2 mg/L (≈ 0.447 µM); in data set [2], 12.5 mg/L (≈ 27.9 µM). Further, the IC50 in the data set on HEK293 stood at 958 mg/L (≈ 2140 µM). For the same compound, the selectivity ratio in data set [1] amounted to 76.7.
Regarding `COc1ccc2cc(Cn3cc(Cn4cnn(-c5ccccc5)c4=O)nn3)c(Cl)nc2c1`, the minimum inhibitory concentration (MIC) in the data set with Aspergillus fumigatus is 3.12 mg/L (≈ 6.97 µM); in the data set on Candida albicans, 0.2 mg/L (≈ 0.447 µM); against Aspergillus niger it was 0.2 mg/L (≈ 0.447 µM); in the data set with Aspergillus flavus, 0.2 mg/L (≈ 0.447 µM); in [2], 1.6 mg/L (≈ 3.57 µM). The compound also gave an IC50 in the data set with HEK293 of 1010 mg/L (≈ 2250 µM). The selectivity ratio in [1] stood at 630.
Regarding `C[C@@H](N1CCN(c2ccc(-n3cnnn3)cc2)C1=O)[C@](O)(Cn1cncn1)c1ccc(F)cc1F`, it took 1 mg/L (≈ 2.08 µM) to inhibit growth in the data set on Aspergillus fumigatus (MIC).
For the compound `NC(=O)c1cnccn1` [PYRAZINAMIDE], the minimum inhibitory concentration (MIC) in [2] was 6.25 mg/L (≈ 50.8 µM).
In the case of `O=C(N/N=C/c1cn(-c2ccc(Cl)cc2)nn1)c1ccncc1`, inhibition of growth in [3] (MIC) required 0.62 mg/L (≈ 1.9 µM).
Take `COc1ccc(-n2ncn(Cc3cn(Cc4cc5ccc(Cl)cc5nc4Cl)nn3)c2=O)cc1`: the MIC in the data set with Aspergillus fumigatus turned out to be 3.12 mg/L (≈ 6.47 µM); against Candida albicans, 0.2 mg/L (≈ 0.415 µM); against Aspergillus niger, 0.2 mg/L (≈ 0.415 µM); in the data set with Aspergillus flavus it was 0.2 mg/L (≈ 0.415 µM); in [2], 3.12 mg/L (≈ 6.47 µM). Also, in the data set with HEK293, the IC50 was 1460 mg/L (≈ 3040 µM). The selectivity ratio in [1] came to 470.
On to `COc1ccc(-n2ncn(Cc3cn(Cc4cc5cc(Cl)ccc5nc4Cl)nn3)c2=O)cc1`, for which the MIC against Aspergillus fumigatus was 3.12 mg/L (≈ 6.47 µM); against Candida albicans it was 0.2 mg/L (≈ 0.415 µM); against Aspergillus niger, 0.2 mg/L (≈ 0.415 µM); against Aspergillus flavus, 0.2 mg/L (≈ 0.415 µM); in data set [2], 3.12 mg/L (≈ 6.47 µM). Half-maximal inhibition in the data set on HEK293 (IC50) was put at 1060 mg/L (≈ 2200 µM). For the same compound, the selectivity ratio in [1] came out at 340.
Regarding `O=c1n(Cc2cn(Cc3cc4cc(Cl)ccc4nc3Cl)nn2)cnn1-c1ccccc1`, the MIC against Aspergillus fumigatus came out at 3.12 mg/L (≈ 6.9 µM); in the data set with Candida albicans, 0.2 mg/L (≈ 0.442 µM); in the data set with Aspergillus niger, 0.2 mg/L (≈ 0.442 µM); against Aspergillus flavus, 0.2 mg/L (≈ 0.442 µM); in data set [2], 12.5 mg/L (≈ 27.6 µM). The compound further gave a half-inhibitory concentration (IC50) with HEK293 of 459 mg/L (≈ 1010 µM). In addition, the selectivity ratio in data set [1] was 36.7.
Regarding `COc1ccc(-n2ncn(Cc3cn(Cc4cc5cc(C)ccc5nc4Cl)nn3)c2=O)cc1`, the minimum inhibitory concentration (MIC) in the data set with Aspergillus fumigatus is 3.12 mg/L (≈ 6.75 µM); with Candida albicans, 0.2 mg/L (≈ 0.433 µM); against Aspergillus niger, 0.2 mg/L (≈ 0.433 µM); with Aspergillus flavus, 0.2 mg/L (≈ 0.433 µM); in [2] it was 1.6 mg/L (≈ 3.46 µM). This compound displayed an IC50 in the data set on HEK293 of 615 mg/L (≈ 1330 µM). For the same compound, the selectivity ratio in data set [1] was determined as 384.
As for `O=C(O)c1cn(C2CC2)c2cc(N3CCNCC3)c(F)cc2c1=O` [CIPROFLOXACIN], the MIC in [2] is 3.12 mg/L (≈ 9.42 µM).
Take `Cc1ccc2nc(Cl)c(Cn3cc(Cn4cnn(-c5ccccc5)c4=O)nn3)cc2c1`: the minimum inhibitory concentration (MIC) with Aspergillus fumigatus was found to be 3.12 mg/L (≈ 7.22 µM); in the data set with Candida albicans, 0.2 mg/L (≈ 0.463 µM); against Aspergillus niger, 0.2 mg/L (≈ 0.463 µM); against Aspergillus flavus it was 0.2 mg/L (≈ 0.463 µM); in [2], 3.12 mg/L (≈ 7.22 µM). In addition, the half-maximal inhibitory concentration (IC50) in the data set on HEK293 was found to be 478 mg/L (≈ 1110 µM). Further, the selectivity ratio in [1] was determined as 153.
For `COc1ccc(-n2ncn(Cc3cn(Cc4cc5cc(Br)ccc5nc4Cl)nn3)c2=O)cc1`, the MIC with Aspergillus fumigatus amounted to 3.12 mg/L (≈ 5.92 µM); in the data set with Candida albicans, 0.2 mg/L (≈ 0.38 µM); in the data set with Aspergillus niger, 0.2 mg/L (≈ 0.38 µM); against Aspergillus flavus it was 0.2 mg/L (≈ 0.38 µM); in [2], 6.25 mg/L (≈ 11.9 µM). The compound also yielded a half-inhibitory concentration (IC50) with HEK293 of 333 mg/L (≈ 632 µM). The selectivity ratio in data set [1] stood at 53.2.
Turning to `O=c1n(Cc2cn(Cc3cc4cc(Br)ccc4nc3Cl)nn2)cnn1-c1ccccc1`, the minimal inhibitory concentration (MIC) in the data set on Aspergillus fumigatus is 3.12 mg/L (≈ 6.28 µM); in the data set on Candida albicans, 0.2 mg/L (≈ 0.403 µM); with Aspergillus niger, 0.2 mg/L (≈ 0.403 µM); against Aspergillus flavus, 0.2 mg/L (≈ 0.403 µM); in data set [2], 25 mg/L (≈ 50.3 µM). The half-maximal inhibitory concentration (IC50) in the data set on HEK293 turned out to be 1650 mg/L (≈ 3330 µM). In data set [1], the selectivity ratio is 66.1.
For `OC(Cn1cncn1)(Cn1cncn1)c1ccc(F)cc1F` [FLUCONAZOLE], the MIC in the data set on Candida albicans, against Aspergillus niger and with Aspergillus flavus was 25 mg/L (≈ 81.6 µM) in each case.
In the case of `O=c1n(Cc2cn(Cc3cc4ccc(Cl)cc4nc3Cl)nn2)cnn1-c1ccccc1`, the MIC in the data set on Aspergillus fumigatus came to 3.12 mg/L (≈ 6.9 µM); against Candida albicans, 0.2 mg/L (≈ 0.442 µM); in the data set on Aspergillus niger, 0.2 mg/L (≈ 0.442 µM); against Aspergillus flavus it was 0.2 mg/L (≈ 0.442 µM); in data set [2], 25 mg/L (≈ 55.3 µM). In the data set on HEK293, the midpoint of inhibition, the IC50, lay at 869 mg/L (≈ 1920 µM). Also, the selectivity ratio in [1] amounted to 34.8.
Regarding `NNC(=O)c1ccncc1` [ISONIAZID], the minimum inhibitory concentration (MIC) in [2] was determined as 1.6 mg/L (≈ 11.7 µM).
`CCCCCCCCc1cn(CC(=O)OCC)nn1`: the MIC in [4] turned out to be 0.5 mg/L (≈ 1.87 µM).
Consider `Cc1cccc2cc(Cn3cc(Cn4cnn(-c5ccccc5)c4=O)nn3)c(Cl)nc12`, for which the MIC with Aspergillus fumigatus came to 3.12 mg/L (≈ 7.22 µM); against Candida albicans, 0.2 mg/L (≈ 0.463 µM); with Aspergillus niger it was 0.2 mg/L (≈ 0.463 µM); against Aspergillus flavus, 0.2 mg/L (≈ 0.463 µM); in [2] it was 1.6 mg/L (≈ 3.7 µM). The 50% inhibitory concentration (IC50) with HEK293 was 729 mg/L (≈ 1690 µM). The selectivity ratio in [1] was 234.
`COc1ccc(-n2ncn(Cc3cn(Cc4cc5cccc(C)c5nc4Cl)nn3)c2=O)cc1`: the MIC with Aspergillus fumigatus is 3.12 mg/L (≈ 6.75 µM); against Candida albicans, 0.2 mg/L (≈ 0.433 µM); with Aspergillus niger, 0.2 mg/L (≈ 0.433 µM); in the data set with Aspergillus flavus it was 0.2 mg/L (≈ 0.433 µM); in data set [2] it was 1.6 mg/L (≈ 3.46 µM). The 50% inhibitory concentration (IC50) with HEK293 came to 586 mg/L (≈ 1270 µM). In addition, the selectivity ratio in data set [1] amounted to 366.
As to `O=c1n(Cc2cn(Cc3cc4ccccc4nc3Cl)nn2)cnn1-c1ccccc1`, the MIC against Aspergillus fumigatus was 3.12 mg/L (≈ 7.47 µM); against Candida albicans it was 0.2 mg/L (≈ 0.479 µM); against Aspergillus niger it was 0.2 mg/L (≈ 0.479 µM); against Aspergillus flavus it was 0.2 mg/L (≈ 0.479 µM); in data set [2], 25 mg/L (≈ 59.8 µM). For the same compound, in the data set with HEK293, inhibition was half-maximal at 655 mg/L (≈ 1570 µM) (IC50). Besides, the selectivity ratio in data set [1] was found to be 26.2.
